# Reference: patent US12157730B2, “Heteroaryl derivative, method for producing same, and pharmaceutical composition comprising same as effective component” (VORONOI INC., priority 2019, dated 2024)
# Molecular target: T1, Ba/F3 cell EGFR Exon20 ins NPH (Homo sapiens, UniProt P00533, INS773NPH)
# T1 construct: expressed in transfected cells; host or cells: Ba/F3
# Assay: Ba/F3 cell proliferation suppression, EGFR Exon20 ins NPH
# Assay type: cell-based
# Settings: GI50 class; Ba/F3 cell line with NPH inserted at Exon20 of EGFR; 72 hours
# In short: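 After 72 h compound exposure (twelve 3-fold steps, 0.3 nM–50 um final), live cells were measured by CellTiter-Glo luminescence and growth expressed as % of control to derive GI50. Cells were seeded at 3000–5000 per well a day earlier; Ba/F3 medium contained IL-3; three repeats.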
row,SMILES,Ba/F3 (NPH) Activity
1,"C=CC(=O)Nc1cc(Nc2cc(N3OCC[C@@H]3c3ccc(Cl)c(Cl)c3F)ncn2)c(OC)cc1N1CCC(N2CCN(C3COC3)CC2)CC1 [Example 84, N-(5-((6-((R)-3-(3,4-dichloro-2-fluorophenyl)isoxazolidine-2-yl)pyrimidine-4-yl)amino)-4-methoxy-2-(4-(4-(oxetane-3-yl)piperazine-1-yl)piperidine-1-yl)phenyl)acrylamide]",B (50 nM ≤ GI50 < 500 nM)
2,"C=CC(=O)Nc1cc(Nc2cc(N3OCC[C@@H]3c3ccc(F)c(Cl)c3)ncn2)c(OC)cc1N1CCN(C(C)=O)CC1 [compound 907, N-(2-(4-acetylpiperazine-1-yl)-5-((6-((R)-3-(3-chloro-4-fluorophenyl)isoxazolidine-2-yl)pyrimidine-4-yl)amino)-4-methoxyphenyl) acrylamide]",A (GI50 < 50 nM)
3,"C=CC(=O)Nc1cc(Nc2cc(N3OCC[C@@H]3c3cc(F)cc(Cl)c3)ncn2)c(OC)cc1N1CCC(N2C[C@@H]3C[C@H]2CO3)CC1 [compound 592, N-(2-(4-((1S,4S)-2-oxa-5-azabicyclo[2.2.1]heptane-5-yl)piperidine-1-yl)-5-((6-((R)-3-(3-chloro-5-fluorophenyl)isoxazolidine-2-yl)pyrimidine-4-yl)amino)-4-methoxyphenyl) acrylamide]",A (GI50 < 50 nM)
4,"C=CC(=O)Nc1cc(Nc2cc(N3OCC[C@@H]3c3cccc(F)c3Cl)ncn2)c(OC)cc1N1CCN(C)CC1 [compound 552, N-(5-((6-((R)-3-(2-chloro-3-fluorophenyl)isoxazolidine-2-yl)pyrimidine-4-yl)amino)-4-methoxy-2-(4-methylpiperazine-1-yl)phenyl)acrylamide]",A (GI50 < 50 nM)
5,"C=CC(=O)Nc1cc(Nc2cc(N3OCC[C@@H]3c3ccc(Cl)c(F)c3)ncn2)c(OC)cc1N1CCC(N2CCN(C(C)=O)CC2)CC1 [compound 796, N-(2-(4-(4-acetylpiperazine-1-yl)piperidine-1-yl)-5-((6-((R)-3-(4-chloro-3-fluorophenyl)isoxazolidine-2-yl)pyrimidine-4-yl)amino)-4-methoxyphenyl) acrylamide]",A (GI50 < 50 nM)
6,"C=CC(=O)Nc1cc(Nc2cc(N3OCC[C@@H]3c3ccc(Cl)c(Cl)c3)ncn2)c(OC)cc1N1CCN(C(C)=O)CC1 [compound 675, N-(2-(4-acetylpiperazine-1-yl)-5-((6-((R)-3-(3,4-dichlorophenyl)isoxazolidine-2-yl)pyrimidine-4-yl)amino)-4-methoxyphenyl) acrylamide]",A (GI50 < 50 nM)
7,"C=CC(=O)Nc1cc(Nc2cc(N3OCC[C@@H]3c3ccc(F)c(Cl)c3F)ncn2)c(OC)cc1N1C[C@H](C)O[C@@H](C)C1 [compound 658, N-(5-((6-((R)-3-(3-chloro-2,4-difluorophenyl)isoxazolidine-2-yl)pyrimidine-4-yl)amino)-2-((2S,6S)-2,6-dimethylmorpholino)-4-methoxyphenyl) acrylamide]",B (50 nM ≤ GI50 < 500 nM)
8,"C=CC(=O)Nc1cc(Nc2cc(N3OCC[C@@H]3c3cccc(Cl)c3)ncn2)c(OC)cc1N1CCC(N2CCN(C(C)=O)CC2)CC1 [compound 471, N-(2-(4-(4-acetylpiperazine-1-yl)piperidine-1-yl)-5-((6-((R)-3-(3-chlorophenyl)isoxazolidine-2-yl)pyrimidine-4-yl)amino)-4-methoxyphenyl) acrylamide]",A (GI50 < 50 nM)
9,"C=CC(=O)Nc1cc(Nc2cc(N3OCC[C@@H]3c3ccc(F)c(Cl)c3F)ncn2)c(OC)cc1N1CCN(CC)CC1 [compound 600, N-(5-((6-((R)-3-(3-chloro-2,4-difluorophenyl)isoxazolidine-2-yl)pyrimidine-4-yl)amino)-2-(4-ethylpiperazine1-yl)-4-methoxyphenyl) acrylamide]",A (GI50 < 50 nM)
10,"C=CC(=O)Nc1cc(Nc2cc(N3OCC[C@@H]3c3ccc4ccccc4c3)ncn2)c(OC)cc1N1CCO[C@H](C)C1 [compound 663, N-(4-methoxy-2-((R)-2-methylmorpholino)-5-((6-((R)-3-(naphthalene-2-yl)isoxazolidine-2-yl)pyrimidine-4-yl)amino)phenyl)acrylamide]",B (50 nM ≤ GI50 < 500 nM)
11,"C=CC(=O)Nc1cc(Nc2cc(N3OCC[C@@H]3c3cc(F)cc(F)c3)ncn2)c(OC)cc1N1CCC(N2CCC(F)(F)CC2)CC1 [compound 718, N-(2-(4,4-difluoro-[1,4'-bipiperidine]-1'-yl)-5-((6-((R)-3-(3,5-difluorophenyl)isoxazolidine-2-yl)pyrimidine-4-yl)amino)-4-methoxyphenyl) acrylamide]",A (GI50 < 50 nM)
12,"C=CC(=O)Nc1cc(Nc2cc(N3OCC[C@@H]3c3cc(F)cc(F)c3)ncn2)c(O[C@H](C)C(F)(F)F)cc1N1CCC(N2CCN(C3CC3)CC2)CC1 [Example 119, N-(2-(4-(4-cyclopropylpiperazine-1-yl)piperidine-1-yl)-5-((6-((R)-3-(3,5-difluorophenyl)isoxazolidine-2-yl)pyrimidine-4-yl)amino)-4-(((R)-1,1,1-trifluoropropane-yl)oxy)phenyl)acrylamide]",A (GI50 < 50 nM)
13,"C=CC(=O)Nc1cc(Nc2cc(N3OCC[C@@H]3c3cccc(F)c3)ncn2)c(OC)cc1N1CC[C@H](N2CCOCC2)C1 [compound 321, N-(5-((6-((R)-3-(3-fluorophenyl)isoxazolidine-2-yl)pyrimidine-4-yl)amino)-4-methoxy-2-((S)-3-morpholinopyrolidine-1-yl)phenyl)acrylamide]",B (50 nM ≤ GI50 < 500 nM)
14,"C=CC(=O)Nc1cc(Nc2cc(N3OCC[C@@H]3c3cccc(OC)c3)ncn2)c(OC)cc1N1CCC(N2CCN(C3COC3)CC2)CC1 [Example 81, N-(4-methoxy-5-((6-((R)-3-(3-methoxyphenyl)isoxazolidine-2-yl)pyrimidine-4-yl)amino)-2-(4-(4-(oxetane-3-yl)piperazine-1-yl)piperidine-yl)phenyl) acrylamide]",B (50 nM ≤ GI50 < 500 nM)
15,"C=CC(=O)Nc1cc(Nc2cc(N3OCC[C@@H]3c3c(F)ccc(F)c3F)ncn2)c(OC)cc1N1CCC(N2CCN(C3CC3)[C@H](C)C2)CC1 [Example 166, N-(2-(4-((R)-4-cyclopropyl-3-methylpiperazine-1-yl)piperidine-1-yl)-4-methoxy-5-((6-((R)-3-(2,3,6-trifluorophenyl)isoxazolidine-2-yl)pyrimidine-4-yl)amino)phenyl)acrylamide]",A (GI50 < 50 nM)
16,"C=CC(=O)Nc1cc(Nc2cc(N3OCC[C@@H]3c3ccc(Cl)c(Cl)c3)ncn2)c(OC)cc1N(C)CCOC [compound 679, N-(5-((6-((R)-3-(3,4-dichlorophenyl)isoxazolidine-2-yl)pyrimidine-4-yl)amino)-4-methoxy-2-((2-methoxyethyl)(methyl)amino)phenyl) acrylamide]",B (50 nM ≤ GI50 < 500 nM)

# The remaining lines, values ahead:
row,Ba/F3 (NPH) Activity,SMILES
1,B (50 nM ≤ GI50 < 500 nM),"C=CC(=O)Nc1cc(Nc2cc(N3OCC[C@@H]3c3ccc(Cl)cc3F)ncn2)c(OC)cc1N1CC[C@H](N2CCOCC2)C1 [compound 407, N-(5-((6-((R)-3-(4-chloro-2-fluorophenyl)isoxazolidine-2-yl)pyrimidine-4-yl)amino)-4-methoxy-2-((S)-3-morpholinopyrolidine-1-yl)phenyl)acrylamide]"
2,A (GI50 < 50 nM),"C=CC(=O)Nc1cc(Nc2cc(N3OCC[C@@H]3c3ccc(F)c(F)c3)ncn2)c(OC)cc1N1CCC(N2C[C@@H](C)O[C@@H](C)C2)CC1 [compound 543, N-(5-((6-((R)-3-(3,4-difluorophenyl)isoxazolidine-2-yl)pyrimidine-4-yl)amino)-2-(4-((2S,6R)-2,6-dimethylmorpholino)piperidine-1-yl)-4-methoxyphenyl) acrylamide]"
3,A (GI50 < 50 nM),"C=CC(=O)Nc1cc(Nc2cc(N3OCC[C@@H]3c3ccc(F)cc3F)ncn2)c(OC)cc1N1CCC(N2CC[C@@H](N(C)C)C2)CC1 [compound 429, N-(5-((6-((R)-3-(2,4-difluorophenyl)isoxazolidine-2-yl)pyrimidine-4-yl)amino)-2-(4-((R)-3-(dimethylamino)pyrolidine-1-yl)piperidine-1-yl)-4-methoxyphenyl) acrylamide]"
4,A (GI50 < 50 nM),"C=CC(=O)Nc1cc(Nc2cc(N3OCC[C@@H]3c3ccc(F)cc3)ncn2)c(OC)cc1N1CCC(N2CCC(N(C)C)CC2)CC1 [compound 870, N-(2-(4-(dimethylamino)-[1,4'-bipiperidine]-1'-yl)-5-((6-((R)-3-(4-fluorophenyl)isoxazolidine-2-yl)pyrimidine-4-yl)amino)-4-methoxyphenyl) acrylamide]"
5,A (GI50 < 50 nM),"C=CC(=O)Nc1cc(Nc2cc(N3OCC[C@@H]3c3ccc(F)c(Cl)c3F)ncn2)c(OC)cc1N1CCC(N2CCN(CC)CC2)CC1 [compound 639, N-(5-((6-((R)-3-(3-chloro-2,4-difluorophenyl)isoxazolidine-2-yl)pyrimidine-4-yl)amino)-2-(4-(4-ethylpiperazine-1-yl)piperidine-1-yl)-4-methoxyphenyl) acrylamide]"
6,A (GI50 < 50 nM),"C=CC(=O)Nc1cc(Nc2cc(N3OCC[C@@H]3c3cc(F)ccc3F)ncn2)c(OC)cc1N1CCC(N2C[C@@H](C)O[C@@H](C)C2)CC1 [compound 714, N-(5-((6-((R)-3-(2,5-difluorophenyl)isoxazolidine-2-yl)pyrimidine-4-yl)amino)-2-(4-((2S,6R)-2,6-dimethylmorpholino)piperidine-1-yl)-4-methoxyphenyl) acrylamide]"
7,A (GI50 < 50 nM),"C=CC(=O)Nc1cc(Nc2cc(N3OCC[C@@H]3c3cc(F)cc(F)c3)ncn2)c(OC)cc1N1CCC(N2CC[C@@H](CN(C)C)C2)CC1 [compound 626, N-(5-((6-((R)-3-(3,5-difluorophenyl)isoxazolidine-2-yl)pyrimidine-4-yl)amino)-2-(4-((S)-3-((dimethylamino)methyl)pyrolidine-1-yl)piperidine-1-yl)-4-methoxyphenyl) acrylamide]"
